Tests used:
Type in all cases: cell-based
[1] = system: normal human skin fibroblasts (WT); experiment: Neu5Gc/ManNGc feeding experiment, normal human skin fibroblasts; conditions: normal wild-type (WT) fibroblasts fed 3 mM for 3 days
Experimental: Cell Culture—Caco-2 cells were propagated in alpha-MEM containing GLUTAMAX™ (Invitrogen, San Diego, Calif.) and a mixture of ribonucleosides and deoxyribonucleosides (Gibco/Invitrogen, San Diego, Calif.) supplemented with 20% FCS. All the fibroblast cell lines and CHO-K1 cells were cultured in the same media supplemented respectively with 15% non-heat inactivated FCS or 10% heat inactivated FCS. Chimpanzee Fred and human […] EBV-transformed lymphoblasts were cultured in RPMI-1640 (Gibco/Invitrogen, San Diego, Calif.) supplemented with 10% heat inactivated FCS or 15% human serum. All of the cultures were maintained at 37° C., 5% CO2 atmosphere. In order to deplete any remaining Neu5Gc from FCS, the cells were split and cultured prior to Neu5Gc feeding experiments for at least 4 days in alpha-MEM supplemented with an adequate percentage of heat-inactivated premium human serum instead of FCS. The cells were then maintained under the same conditions during the whole feeding experiment. The human serum was heat inactivated at 56° C. for 30 min. before use.
Neu5Gc and ManNGc Feeding Experiment—Neu5Ac, Neu5Gc or ManNGc were dried, dissolved in the appropriate media supplemented with heat-inactivated human serum, sterilized using a Spin-X® (Corning Inc., Corning, N.Y.) and then added to the cells. The pH of the media containing Sia was adjusted to neutrality using sterilized 1M NaOH before starting the feeding experiment. Cells were cultured in the presence of up to 3 mM free Sia or ManNGc for 1 or 3 days at 37° C. At the end of the feeding, cells were washed with cold PBS, harvested either by scraping or with 2 mM EDTA for fibroblasts, and washed again with cold PBS prior to fractionation.
Fractionation of the Labeled Cells—Washed cell pellets were sonicated into 500 μL of 20 mM sodium phosphate buffer or 20 mM Tris-HCl, pH 7.5, using 4×15 second pulses of a sonicator cell disrupter, model Some Dismembrator (Fisher Scientific, Hampton, N.J.) at a probe setting of 3. The sonicate was centrifuged at 75×g for 15 min., and the pellet obtained consisted primarily of nuclei and unbroken cells. The pellet contained <5% of the incorporated sialic acid as determined using a radioactive tracer (data not shown.) The supernatant was therefore considered as the “total homogenate” fraction. A portion (20%) of the “total homogenate” fraction was taken for protein quantification and Sia analysis by DMB derivatization and HPLC analysis (as discussed below.) The remainder was centrifuged at 100,000×g for 1 h. The resulting pellet, called the “membrane” fraction, was then resuspended by sonication (15 sec.) in 200 μl of sodium acetate buffer, pH 5.5. The 100,000×g supernatant, called the “soluble” fraction was adjusted to 90% ethanol using absolute ice-cold ethanol, and placed overnight at −20° C. The flocculant precipitate, which represents the “soluble protein” fraction, was washed 3 times with 90% ice-cold ethanol and then resuspended in 200 μl of water. […] All the Sias in these fractions were released with mild acid hydrolysis if necessary and then analyzed by HPLC after DMB derivatization. Protein quantification was performed on the total homogenate, membrane and soluble protein fractions by using the BCA protein assay kit from Pierce (Rockford, Ill.) In some experiments, the resulting data obtained for the Sia bound to the membrane fraction and to the soluble proteins were pooled and presented here as a High Molecular Weight (HMW) fraction. […]

[2] = system: lysosomal sialic acid transporter mutant human fibroblasts (GM05520); experiment: Neu5Gc/ManNGc feeding, lysosomal sialic acid transporter mutant fibroblasts GM05520; conditions: GM05520 (ISSD) fibroblasts fed 3 mM for 3 days
Description: (§1) Cell Lines—Caco-2 cells (human epithelial cells isolated from a primary colon carcinoma), normal human skin fibroblasts (CCD-919-SK) and chinese hamster ovary (CHO-K1) cells were purchased from ATCC (Manassas, Va.) Mutant human skin fibroblasts (GM05520, GM08496 and GM01718) were obtained from the Coriell Institute for Medical Research (Camden, N.J.) Chimpanzee Fred and human […] EBV-transformed lymphoblasts were a gift from Dr. Peter Parham, Stanford University, CA. […]
(§2) Fractionation of the Labeled Cells—Washed cell pellets were sonicated into 500 μL of 20 mM sodium phosphate buffer or 20 mM Tris-HCl, pH 7.5, using 4×15 second pulses of a sonicator cell disrupter, model Some Dismembrator (Fisher Scientific, Hampton, N.J.) at a probe setting of 3. […] The pellet contained <5% of the incorporated sialic acid as determined using a radioactive tracer (data not shown.) The supernatant was therefore considered as the “total homogenate” fraction. A portion (20%) of the “total homogenate” fraction was taken for protein quantification and Sia analysis by DMB derivatization and HPLC analysis (as discussed below.) The remainder was centrifuged at 100,000×g for 1 h. […] All the Sias in these fractions were released with mild acid hydrolysis if necessary and then analyzed by HPLC after DMB derivatization. […]

[3] = system: lysosomal sialic acid transporter mutant human fibroblasts (GM08496); experiment: Neu5Gc/ManNGc feeding, lysosomal sialic acid transporter mutant fibroblasts GM08496; conditions: GM08496 (Salla disease) fibroblasts fed 3 mM for 3 days
Description: as §1, §2

O=C(CO)N[C@@H]1C(O)O[C@H](CO)[C@@H](O)[C@@H]1O (stereo partly drawn) [ManNGc, N-glycolylmannosamine]
percent of Neu5Gc incorporation into membrane-bound glycoconjugates [1]: 19% | percent of Neu5Gc in membrane-bound glycoconjugates [2]: 18% | percent of Neu5Gc in membrane-bound glycoconjugates [3]: 17%

Source: US20080166805A1, “Culturing human cells and tissues in an N-glycolylneuraminic acid-free environment” (The Regents of the University of California, priority 2005, published 2008)
